Measured values published in US20250134874A1, “PHARMACEUTICAL FORMULATIONS COMPRISING 3-({[(4R)-7-{METHYL[4-(PROPAN-2-YL)PHENYL]AMINO}-3,4-DIHYDRO-2H-1-BENZOPYRAN-4-YL]METHYL}AMINO)PYRIDINE-4-CARBOXYLIC ACID” (TACHYON THERAPEUTICS, INC., priority 2021, published 2025).

Tested on: 301 cancer cell lines from different tumor types (OncoPanel; HD Biosciences)
Assay: 2D cell viability inhibition assay (CellTiter-Glo) in cancer cell line panel
Assay type: cell-based
Set-up: key to AUC: AUC as fraction of the no-inhibition area (dose range × 0–100 % of control)
Settings: for Emax: in %
Method: In a larger screening study, compound 1 was evaluated across a broad cancer cell line panel (OncoPanel; HD Biosciences) composed of 301 cancer cell lines from different tumor types.
2D cell viability inhibition assays were performed in multiwell plates seeded with cells from the panel. After seeding, the plates were cultured overnight in a humidified incubator at 37° C. to promote adherence. Assays were initiated in individual wells by adding either DMSO as a vehicle control, growth media as a blank, or serially diluted compound 1 (10 μM to 0.0005 μM with 1:3 serial dilution). Cultures were incubated for 168 hours after which the number of viable cells in each test well was assessed using the CellTiter-Glo® Luminescent Cell Viability Assay. Luminescence readouts were performed using an EnVision® Multilabel Reader and the compound 1 readouts were normalized to the DMSO control readouts, expressed as a percent of the control. Outliers were flagged out by visual inspection. Percent of control was plotted against the corresponding compound 1 concentration and the absolute IC50 value was determined using four-parameter logistic non-linear regression as the concentration where inhibition was 50% of the control. For maximum inhibition <50%, the absolute IC50 was reported as >10. In addition to EC50 and IC50, AUC was determined and was normalized to the area corresponding to theoretical no-inhibition (the rectangular area defined by the compound dose range and 0 to 100 in y). Emax was recorded as the minimum in y with the compound dose range. For those cell lines where Emax>40, EC50 was manually set to 10 μM. A hierarchical clustering algorithm based on Euclidean distance between the standardized input values and “Ward.D” method as implemented in R hclust function was used to visualize the compound 1 cellular potency data. The sensitive/moderate/resistant calls for each cell line was determined by visually inspecting the resulting clustering dendrogram. All the analyses were done in R Core Team.

## CC(C)c1ccc(N(C)c2ccc3c(c2)OCC[C@H]3CNc2cnccc2C(=O)O)cc1 [Compound 1, 3-({[(4R)-7-{methyl[4-(propan-2-yl)phenyl]amino}-3,4-dihydro-2H-1-benzopyran-4-yl]methyl}amino)pyridine-4-carboxylic acid]
NCIH23 cell line
  AUC: 0.6227
NCIH69 cell line
  AUC: 0.2802
  Emax: 1.271
NCIH82 cell line
  AUC: 0.2502
NCIH209 cell line
  AUC: 0.1869
  Emax: 8.61
NCIH358 cell line
  AUC: 0.4332
  Emax: 22.66
NCIH441, lung, adenocarcinoma, 168 hours
  AUC: 0.7804
NCIH446 cell line
  AUC: 0.5837
NCIH460 cell line
  AUC: 0.3714
  Emax: 7.705
NCIH508 cell line
  AUC: 0.3378
  Emax: 3.207
NCIH520 cell line
  AUC: 0.3237
NCIH522 cell line
  AUC: 0.4447
  Emax: 15.14
NCIH524 cell line
  AUC: 0.3617
  Emax: 12.7766
NCIH596, lung, mixed adenosquamous carcinoma, 168 hours
  AUC: 0.8151
NCIH647 cell line
  AUC: 0.4942
  Emax: 28.29
NCIH661 cell line
  AUC: 0.3608
  Emax: 9.075
NCIH716 cell line
  AUC: 0.3799
  Emax: 12.75
NCIH929 cell line
  AUC: 0.5285
NCIH1048 cell line
  AUC: 0.1479
NCIH1092 cell line
  AUC: 0.479
  Emax: 26.4
NCIH1155 cell line
  AUC: 0.07571
NCIH1299 cell line
  AUC: 0.3508
  Emax: 12.65
NCIH1355 cell line
  AUC: 0.5594
NCIH1395, lung, adenocarcinoma, 168 hours
  AUC: 0.8542
NCIH1435, lung, non-small cell carcinoma, 168 hours
  AUC: 0.7612
NCIH1436 cell line
  AUC: 0.4953
  Emax: 34.4
NCIH1437 cell line
  AUC: 0.4082
  Emax: 14.97
NCIH1563, lung, adenocarcinoma, 168 hours
  AUC: 0.9652
NCIH1573, lung, adenocarcinoma, 168 hours
  AUC: 0.7482
NCIH1618 cell line
  AUC: 0.02266
  EC50: 0.508 nM
  IC50: < 0.5 nM
NCIH1623 cell line
  AUC: 0.522
NCIH1650, lung, bronchioloalveolar adenocarcinoma, 168 hours
  AUC: 0.8746
NCIH1666 cell line
  AUC: 0.2983
NCIH1694 cell line
  AUC: 0.3214
  Emax: 21.59
NCIH1703 cell line
  AUC: 0.4204
  Emax: 21.7324
NCIH1734 cell line
  AUC: 0.6734
NCIH1755, lung, adenocarcinoma, 168 hours
  AUC: 1.29
NCIH1793 cell line
  AUC: 0.4916
  Emax: 27.48
NCIH1836 cell line
  AUC: 0.3332
NCIH1838, lung, non-small cell carcinoma, 168 hours
  AUC: 0.7858
NCIH1930 cell line
  AUC: 0.5402
NCIH1944 cell line
  AUC: 0.5809
  Emax: 37.59
NCIH1975 cell line
  AUC: 0.529
NCIH2009, lung, adenocarcinoma, 168 hours
  AUC: 0.7914
NCIH2023 cell line
  AUC: 0.2884
NCIH2081 cell line
  AUC: 0.3049
NCIH2087 cell line
  AUC: 0.3822
NCIH2122 cell line
  AUC: 0.5019
NCIH2171 cell line
  AUC: 0.7416
NCIH2172 cell line
  AUC: 0.6812
NCIH2228 cell line
  AUC: 0.6864
NCIH2286 cell line
  AUC: 0.2917
NCIH2291 cell line
  AUC: 0.3822
  Emax: 13.48
NCIH2347 cell line
  AUC: 0.5778
  Emax: 40.29
NCIN87 cell line
  AUC: 0.3132
NIHOVCAR3, ovary, NS, 168 hours
  AUC: 0.7771
NMCG1, central nervous system, NS, 168 hours
  AUC: 0.7013
NOMO1 cell line
  AUC: 0.3293
NUGC3 cell line
  AUC: 0.3824
  Emax: 16
NUGC4 cell line
  AUC: 0.4642
  Emax: 24.53
OCUM1, OCUM1 cell line
  EC50: ≥ 10000 nM
  IC50: 7.79 nM
OCUM1 cell line
  AUC: 0.5324
  Emax: 32.42
ONS76, central nervous system, NS, 168 hours
  AUC: 0.7336
OSRC2 cell line
  AUC: 0.6658
OVISE cell line
  AUC: 0.5405
  IC50: 24 nM
P31FUJ cell line
  AUC: 0.286
PANC1 cell line
  AUC: 0.5543
PANC0213 cell line
  AUC: 0.5829
  EC50: 21.5 nM
  IC50: 35.8 nM
PC3 cell line
  AUC: 0.502
  Emax: 26.1466
PECAPJ34CLONEC12 cell line
  AUC: 0.311
  EC50: 3.81 nM
  IC50: 3.97 nM
PF382 cell line
  AUC: 0.2761
PLCPRF5 cell line
  AUC: 0.5107
RCM1 cell line
  AUC: 0.6711
RD cell line
  AUC: 0.4703
  Emax: 27.42
REH cell line
  AUC: 0.0957
RERFLCMS cell line
  AUC: 0.6415
  EC50: 23.5 nM
  IC50: 65.9 nM
RKO cell line
  AUC: 0.3827
  Emax: 11.05
RL cell line
  AUC: 0.2366
RPMI7951, skin, NS, 168 hours
  AUC: 0.8067
RPMI8226 cell line
  AUC: 0.4363
  Emax: 12.46
RT11284 cell line
  AUC: 0.3717
SAOS2, bone, NS, 168 hours
  AUC: 1.081
SCABER cell line
  AUC: 0.5687
  Emax: 32.32
SCC4 cell line
  AUC: 0.4619
  Emax: 26.08
SCC9, upper aerodigestive tract, squamous cell carcinoma, 168 hours
  AUC: 0.9424
SCC15, upper aerodigestive tract, squamous cell carcinoma, 168 hours
  AUC: 0.9489
SCC25, upper aerodigestive tract, squamous cell carcinoma, 168 hours
  AUC: 0.7789
SHSY5Y cell line
  AUC: 0.4927
  Emax: 25.04
SKBR3 cell line
  AUC: 0.4396
  Emax: 26.59
SKCO1 cell line
  AUC: 0.5952
SKHEP1, liver, adenocarcinoma, 168 hours
  AUC: 0.7091
SKLU1 cell line
  AUC: 0.5662
SKMEL1 cell line
  AUC: 0.4427
  Emax: 22.0664
SKMEL2 cell line
  AUC: 0.6392
SKMEL3 cell line
  AUC: 0.6207
SKMEL5 cell line
  AUC: 0.4074
  Emax: 8.228
SKMEL24, skin, NS, 168 hours
  AUC: 0.7882
SKMEL28 cell line
  AUC: 0.2796
SKMEL31, skin, NS, 168 hours
  AUC: 0.7393
SKMES1 cell line
  AUC: 0.6069
SKNSH, autonomic ganglia, NS, 168 hours
  AUC: 0.7295
SKOV3, ovary, adenocarcinoma, 168 hours
  AUC: 0.9901
SNB19 cell line
  AUC: 0.4677
  Emax: 20.73
SNGM cell line
  AUC: 0.9165
  EC50: 4140 nM
  IC50: 4900 nM
SNU5 cell line
  AUC: 0.6837
SNU16 cell line
  AUC: 0.2821
SNU398 cell line
  AUC: 0.4911
  Emax: 25.8616
SNU668, SNU668 cell line
  EC50: 12.8 nM
  IC50: 18.9 nM
SNU668 cell line
  AUC: 0.464
SNU761 cell line
  AUC: 0.5814
  EC50: ≥ 10000 nM
  IC50: 39.7 nM
SNU878, SNU878 cell line
  IC50: > 10000 nM
SNU878 cell line
  AUC: 0.6648
SNU886 cell line
  AUC: 0.6425
SNU-886, SNU886 cell line
  IC50: > 10000 nM
SNUC1, large intestine, adenocarcinoma, 168 hours
  AUC: 0.7478
SNUC2A cell line
  AUC: 0.615
  EC50: 24.5 nM
  IC50: 52.5 nM
SUPT1 cell line
  AUC: 0.6913
SW48 cell line
  AUC: 0.6038
SW480 cell line
  AUC: 0.409
  Emax: 20.36
SW579, 168 h, SW579, thyroid, anaplastic carcinoma, 168 hours
  IC50: > 10000 nM
SW579, thyroid, anaplastic carcinoma, 168 hours
  AUC: 0.9203
SW620 cell line
  AUC: 0.4658
SW780 cell line
  AUC: 0.4491
  Emax: 13.9761
SW837, large intestine, adenocarcinoma, 168 hours
  AUC: 0.7109
SW1271, 168 h, SW1271, lung, small cell carcinoma, 168 hours
  IC50: > 10000 nM
SW1271, lung, small cell carcinoma, 168 hours
  AUC: 0.8179
SW1417, large intestine, adenocarcinoma, 168 hours
  AUC: 0.9634
SW1463 cell line
  AUC: 0.3408
  Emax: 7.126
SW1710 cell line
  AUC: 0.5768
SW1990 cell line
  AUC: 0.6894
T24, urinary tract, transitional cell carcinoma, 168 hours
  AUC: 0.9289
T84 cell line
  AUC: 0.4928
T.T cell line
  AUC: 0.4321
  Emax: 24.08
TALL1 cell line
  AUC: 0.1999
TE1, oesophagus, squamous cell carcinoma, 168 hours
  AUC: 0.938
TE4 cell line
  AUC: 0.3948
  EC50: 9.11 nM
  IC50: 12.7 nM
  Emax: 11.49
TE5 cell line
  AUC: 0.3877
  Emax: 15.07
TE6 cell line
  AUC: 0.3625
  Emax: 14.02
TE8, oesophagus, squamous cell carcinoma, 168 hours
  AUC: 0.816
TE9 cell line
  AUC: 0.4247
  Emax: 25.31
TE10 cell line
  AUC: 0.5293
  Emax: 29.65
TE11 cell line
  AUC: 0.304
TE14 cell line
  AUC: 0.3068
  EC50: 2.32 nM
  IC50: 3.39 nM
TE15, oesophagus, squamous cell carcinoma, 168 hours
  AUC: 1.084
TF1 cell line
  AUC: 0.2883
THP1 cell line
  AUC: 0.3371
TOV112D cell line
  AUC: 0.3964
  Emax: 23.19
U2OS cell line
  AUC: 0.4065
  Emax: 9.064
U87MG cell line
  AUC: 0.514
  Emax: 38.45
U937 cell line
  AUC: 0.1808
UACC812, breast, ductal carcinoma, 168 hours
  AUC: 0.8418
UMUC3 cell line
  AUC: 0.5934
VCAP, prostate, adenocarcinoma, 168 hours
  AUC: 0.7822
WM115 cell line
  AUC: 0.6097
WM2664 cell line
  AUC: 0.5838
WSUDLCL2 cell line
  AUC: 0.2829
YD38 cell line
  AUC: 0.2983
  EC50: 3.55 nM
  IC50: 3.77 nM
